Where two headings read alike, the source gives them in different places. Square brackets hold non-standard residues; d marks the D form. Side chains are listed from the residue outwards. Ends that are not written are not given here. Peptide text beside a SMILES is read from it. maleimide = maleimide activating group on PEG that reacts with a thiol-containing amino acid by Michael addition to form a thioether linkage (PEGylation); Aib = CC(C)(N)C(=O)O; Sar = CNCC(=O)O
Columns and labels:
[1] = target: GLP-1 receptor (Homo sapiens, UniProt P43220); experiment: GLP-receptor Luciferase assay of prodrug samples incubated in PBS; type: cell-based; details: Table 5
Chain of GLP-1 receptor (P43220 24-463, species assumed): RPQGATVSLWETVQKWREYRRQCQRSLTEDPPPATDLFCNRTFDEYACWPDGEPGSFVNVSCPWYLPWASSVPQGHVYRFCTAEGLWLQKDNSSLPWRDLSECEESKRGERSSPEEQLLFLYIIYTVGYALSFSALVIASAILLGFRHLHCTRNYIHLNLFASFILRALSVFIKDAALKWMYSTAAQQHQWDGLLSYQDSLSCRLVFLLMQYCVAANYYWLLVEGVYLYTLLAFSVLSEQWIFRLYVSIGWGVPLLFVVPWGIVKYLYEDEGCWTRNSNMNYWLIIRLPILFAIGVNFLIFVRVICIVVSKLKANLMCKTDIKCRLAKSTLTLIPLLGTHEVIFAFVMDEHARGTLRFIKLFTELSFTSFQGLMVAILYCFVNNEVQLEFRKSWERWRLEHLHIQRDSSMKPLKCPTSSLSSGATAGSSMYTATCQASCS

[2] = Dipeptide cleavage half time in PBS on model hexapeptide (HPLC, LC-MS); type: physicochemical; details: for Relative peak area(%), HPLC peak a: molecular weight 702; for Relative peak area(%), HPLC peak b: molecular weight 902
Experimental: The hexapeptide was assembled on a peptide synthesizer.
Then it was incubated at 37° C. in a water bath. […] HPLC was used to monitor the cleavage reaction.
The flow rate was 1 mL/min.
The slope of this plot gives the rate constant I′.

[3] = target: glucagon receptor (Homo sapiens, UniProt P47871); experiment: glucagon antagonism of Class 4 peptides, cAMP production in vitro; type: cell-based; details: PLA at position 6 versus positions 4 and 5
Chain of glucagon receptor (P47871 26-477): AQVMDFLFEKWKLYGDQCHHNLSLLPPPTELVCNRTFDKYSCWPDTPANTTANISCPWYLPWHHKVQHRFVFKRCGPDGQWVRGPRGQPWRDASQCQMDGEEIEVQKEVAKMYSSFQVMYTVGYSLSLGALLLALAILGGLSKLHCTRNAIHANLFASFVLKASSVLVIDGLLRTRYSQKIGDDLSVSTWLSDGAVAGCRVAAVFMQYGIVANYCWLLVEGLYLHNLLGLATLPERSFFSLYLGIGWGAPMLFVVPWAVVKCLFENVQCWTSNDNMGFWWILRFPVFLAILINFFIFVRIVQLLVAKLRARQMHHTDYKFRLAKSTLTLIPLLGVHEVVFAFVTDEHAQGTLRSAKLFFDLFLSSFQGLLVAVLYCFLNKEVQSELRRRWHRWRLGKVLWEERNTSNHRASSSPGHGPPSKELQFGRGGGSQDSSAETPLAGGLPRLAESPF

“40 k PEG-Aib^−1-P^0,C^24GLP(7-36): Aib^−1-P^0,C^24GLP(7-36) pegylated by maleimido-functioned 40 k Da PEG on the SH group of 24-Cys ([Aib]PHAEGTFTSDVSSYLEGQAAKEFIC([maleimide-PEG 40 kDa])WLVKGR; ends and bridges not checked)” gave an EC50%/STD ratio ([1]; 30 h in PBS) of 17.31%, an EC50%/STD ratio ([1]; 54 h in PBS) of 27.74% and an EC50%/STD ratio ([1]; 240 h in PBS) of 66.49%. The EC50%/STD ratio ([1]; […] in PBS) was 55.90%.
In the case of `C[C@@H](O)[C@H](NC(=O)CNC(=O)[C@H](CCCNC(=N)N)NC(=O)[C@H](CO)NC(=O)[C@H](Cc1c[nH]cn1)NC(=O)CN(C)C(=O)[C@@H](N)CCCCN)C(=O)N[C@@H](Cc1ccccc1)C(N)=O` [lys-sar-HSRGTF-NH2] (H-K[Sar]HSRGTF-NH2; N-terminus assumed), the “Relative peak area(%), HPLC peak a” value ([2]; 5 h in PBS pH 7.4, 37° C.) is reported as 26.5%, the “Relative peak area(%), HPLC peak b” value ([2]; 5 h in PBS pH 7.4, 37° C.) is reported as 73.5% and the “Relative peak area(%), HPLC peak a” value ([2]; 8 h in PBS) is reported as 28.9%. The “Relative peak area(%), HPLC peak b” value ([2]; 8 h in PBS) was 71.1%, the “Relative peak area(%), HPLC peak a” value ([2]; 24 h in PBS) was 28.8% and the “Relative peak area(%), HPLC peak b” value ([2]; 24 h in PBS) was 71.2%. For the same molecule, the “Relative peak area(%), HPLC peak a” value ([2]; 31 h in PBS) was 77.7%, the “Relative peak area(%), HPLC peak b” value ([2]; 31 h in PBS) was 22.3% and the “Relative peak area(%), HPLC peak a” value ([2]; 47 h in PBS) was 90.0%. For the same molecule, the “Relative peak area(%), HPLC peak b” value ([2]; 47 h in PBS) was 10.0% and the half-life ([2]; phosphate buffered saline (PBS) buffer, pH 7.4) was 14 h.
In the case of “PLA6 analog: glucagon peptide with first 5 amino acids removed and remaining N-terminal amino group replaced with a hydroxyl group (phenyl-lactic acid)”, the “glucagon antagonist potency compared with analogs having a slightly extended N-terminus” value [3] is reported as “appreciably more potent antagonist”.
In the case of `C[C@H](O)[C@@H](NC(=O)CNC(=O)[C@@H](CCCNC(=N)N)NC(=O)[C@H](NC(=O)[C@@H](Cc1c[nH]cn1)NC(=O)CN(C)C(=O)[C@@H](N)CCCCN)[C@H](C)O)C(=O)N[C@H](Cc1ccccc1)C(N)=O` [lys-sar-dHdTdRGdTdF-NH2] (H-K[Sar][dH][dT][dR]G[dT][dF]-NH2), the “Relative peak area(%), HPLC peak a” value (5 h in plasma pH 7.4, 37° C., molecular weight 702) is reported as 17.0%, the “Relative peak area(%), HPLC peak b” value (5 h in plasma, molecular weight 902) is reported as 83.0% and the “Relative peak area(%), HPLC peak a” value (11 h in plasma) is reported as 29.2%. For the same molecule, the “Relative peak area(%), HPLC peak b” value (11 h in plasma) was 70.8%, the “Relative peak area(%), HPLC peak a” value (24 h in plasma) was 60.2% and the “Relative peak area(%), HPLC peak b” value (24 h in plasma) was 39.8%. For the same molecule, the “Relative peak area(%), HPLC peak a” value (32 h in plasma) was 54.0%, the “Relative peak area(%), HPLC peak b” value (32 h in plasma) was 46.0% and the “Relative peak area(%), HPLC peak a” value (48 h in plasma) was 27.6%. For the same molecule, the “Relative peak area(%), HPLC peak b” value (48 h in plasma) was 72.4%.
